What was measured:
Settings in all cases: 72 h
HepG2 [1] = experiment: relative viability EC50 (midpoint between 100% and the lowest measured viability); higher = less toxic
Caco-2 [2] = experiment: as above
U2OS [3] = experiment: as above
Vero E6 [4] = experiment: as above
Calu-3 [5] = experiment: as above
HepG2 [6] = experiment: drug sensitivity score (DSS) for viability; higher = more toxic; extreme values may be limits of the assay
Caco-2 [7] = experiment: as above
U2OS [8] = experiment: as above
Vero E6 [9] = experiment: as above
Calu-3 [10] = experiment: as above
HepG2 [11] = experiment: cell viability relative to DMSO; higher = less toxic
Caco-2 [12] = experiment: as above
U2OS [13] = experiment: as above
Vero E6 [14] = experiment: as above
Calu-3 [15] = experiment: as above

Structure (SMILES) | relative viability EC50 (HepG2 [1]) | relative viability EC50 (Caco-2 [2]) | relative viability EC50 (U2OS [3]) | relative viability EC50 (Vero E6 [4]) | relative viability EC50 (Calu-3 [5]) | drug sensitivity score (HepG2 [6]) | drug sensitivity score (Caco-2 [7]) | drug sensitivity score (U2OS [8]) | drug sensitivity score (Vero E6 [9]) | drug sensitivity score (Calu-3 [10]) | cell viability (HepG2 [11]; 1 nM) | cell viability (HepG2 [11]; 10 nM) | cell viability (HepG2 [11]; 100 nM) | cell viability (HepG2 [11]; 1000 nM) | cell viability (HepG2 [11]; 10000 nM) | cell viability (Caco-2 [12]; 1 nM) | cell viability (Caco-2 [12]; 10 nM) | cell viability (Caco-2 [12]; 100 nM) | cell viability (Caco-2 [12]; 1000 nM) | cell viability (Caco-2 [12]; 10000 nM) | cell viability (U2OS [13]; 1 nM) | cell viability (U2OS [13]; 10 nM) | cell viability (U2OS [13]; 100 nM) | cell viability (U2OS [13]; 1000 nM) | cell viability (U2OS [13]; 10000 nM) | cell viability (Vero E6 [14]; 1 nM) | cell viability (Vero E6 [14]; 10 nM) | cell viability (Vero E6 [14]; 100 nM) | cell viability (Vero E6 [14]; 1000 nM) | cell viability (Vero E6 [14]; 10000 nM) | cell viability (Calu-3 [15]; 1 nM) | cell viability (Calu-3 [15]; 10 nM) | cell viability (Calu-3 [15]; 100 nM) | cell viability (Calu-3 [15]; 1000 nM) | cell viability (Calu-3 [15]; 10000 nM)
CN(C)CCOC(C)(c1ccccc1)c1ccccn1 (stereo not given) [doxylamine] | > 10 µM | > 10 µM | > 10 µM | > 10 µM | > 10 µM | 0 | 0 | 0 | 0 | 0 | 102% | 101% | 101% | 106% | 99.8% | 106% | 97.6% | 98.6% | 98.1% | 104% | 104% | 100% | 103% | 98.4% | 101% | 99.5% | 102% | 100% | 100% | 99.6% | 98.6% | 105% | 98.6% | 106% | 108%
COc1cc(C#N)ccc1S(=O)(=O)Nc1ccc2c(c1)cc(C)c(=O)n2C [NI-57] | > 10 µM | > 10 µM | > 10 µM | > 10 µM | > 10 µM | 0.7 | 0.6 | 0 | 0 | 0 | 106% | 114% | 102% | 94.1% | 85.3% | 99.1% | 97.4% | 94.8% | 91.1% | 83.5% | 101% | 98.2% | 101% | 98.5% | 98.9% | 98.7% | 103% | 99.6% | 95.7% | 96% | 98.7% | 110% | 101% | 101% | 104%
C[C@@H]1O[C@@H](O[C@@H]2[C@@H](O)[C@H](OCCc3ccc(O)c(O)c3)O[C@H](CO)[C@H]2OC(=O)/C=C/c2ccc(O)c(O)c2)[C@H](O)[C@H](O)[C@H]1O [verbascoside] | > 10 µM | > 10 µM | > 10 µM | > 10 µM | > 10 µM | 0 | 0 | 0 | 0 | 0 | 95.3% | 102% | 101% | 106% | 104% | 96.4% | 89.7% | 97.8% | 99.8% | 96.9% | 97.9% | 100% | 96.5% | 96.8% | 93.6% | 98.9% | 99.8% | 94.4% | 101% | 104% | 98.6% | 93.3% | 106% | 105% | 97.1%
Cc1ccccc1/N=N/c1ccc(NC(=O)c2ccnn2C)c(C)c1 | > 10 µM | > 10 µM | > 10 µM | > 10 µM | > 10 µM | 0 | 0 | 0 | 0 | 0 | 107% | 102% | 104% | 91% | 97.6% | 90.6% | 94% | 97.9% | 93.8% | 91.5% | 96.7% | 102% | 100% | 102% | 93.2% | 97.3% | 92.1% | 95.2% | 94.1% | 108% | 112% | 100% | 97.6% | 99.3% | 90.9%
O=C(O)Cc1cccc2c(=O)cc(-c3ccccc3)oc12 [mitoflaxone] | > 10 µM | > 10 µM | > 10 µM | > 10 µM | > 10 µM | 0 | 0 | 0 | 0 | 0 | 98.3% | 92.3% | 93.2% | 103% | 114% | 86% | 101% | 89.6% | 104% | 112% | 99.5% | 98% | 97.3% | 102% | 104% | 96.9% | 99.8% | 95.7% | 94.9% | 107% | 96% | 102% | 97% | 95.8% | 112%
O=C(CCc1ccncc1)NNC(=O)N1Cc2ccccc2Oc2ccc(Cl)cc21 | > 10 µM | > 10 µM | > 10 µM | > 10 µM | > 10 µM | 0 | 0 | 0 | 0 | 0 | 117% | 106% | 111% | 99.9% | 107% | 88.1% | 99.1% | 92.7% | 95.6% | 98.4% | 96.4% | 103% | 96.8% | 102% | 100% | 100% | 98.4% | 101% | 94.9% | 109% | 103% | 96.4% | 97.3% | 87.8% | 95.4%
OC(c1ccccc1)C1CCN(CCc2ccccc2)CC1 (stereo not given) | > 10 µM | > 10 µM | > 10 µM | > 10 µM | > 10 µM | 0 | 0 | 0 | 0 | 0 | 88.4% | 110% | 96.7% | 105% | 114% | 98.4% | 95.2% | 102% | 101% | 95.4% | 101% | 96.7% | 102% | 98% | 101% | 96.3% | 94.1% | 93.5% | 93.8% | 106% | 97.3% | 85% | 111% | 108% | 104%
CN(C(=O)/C=C/c1ccoc1)[C@@H]1CC[C@@]2(O)[C@H]3Cc4ccc(O)c5c4[C@@]2(CCN3CC2CC2)[C@H]1O5 [nalfurafine] | > 10 µM | > 10 µM | > 10 µM | > 10 µM | > 10 µM | 0 | 0 | 0 | 0 | 0 | 102% | 104% | 95.5% | 97.7% | 102% | 104% | 92.9% | 99% | 107% | 104% | 100% | 99.8% | 100% | 103% | 105% | 90.6% | 101% | 89.5% | 95.6% | 102% | 92.2% | 103% | 106% | 96.8% | 91.3%
CN(CCOc1ccc(CC2SC(=O)NC2=O)cc1)c1ccccn1 (stereo not given) [rosiglitazone] | > 10 µM | > 10 µM | > 10 µM | > 10 µM | > 10 µM | 0 | 0.9 | 0 | 2.8 | 0 | 94.9% | 97.1% | 93.5% | 96.5% | 89.5% | 99.9% | 93% | 93.9% | 81.9% | 90.7% | 96.7% | 97.2% | 98.1% | 98.5% | 100% | 96.3% | 95.2% | 88.3% | 82.1% | 81.3% | 105% | 96.2% | 94.6% | 102% | 108%
CCC1(CC)C(=O)NC(=O)N(C)C1=O [metharbital] | > 10 µM | > 10 µM | > 10 µM | > 10 µM | > 10 µM | 0 | 0 | 0 | 0 | 0 | 91.8% | 104% | 95.9% | 102% | 103% | 94.3% | 97.7% | 104% | 102% | 93.1% | 100% | 93.4% | 99.1% | 92.9% | 97.1% | 93% | 96.8% | 94.1% | 92.3% | 103% | 110% | 92.6% | 110% | 98.4% | 95%
COc1ccc(CCN(C)CCCC(C#N)(c2cc(OC)c(OC)c(OC)c2)C(C)C)cc1OC (stereo not given) [gallopamil] | > 10 µM | > 10 µM | > 10 µM | > 10 µM | > 10 µM | 0 | 0 | 0 | 0 | 0 | 96.8% | 103% | 98.3% | 101% | 106% | 91.3% | 91.5% | 92.1% | 91.6% | 96% | 94% | 99.7% | 96.4% | 97.3% | 99.3% | 101% | 97.3% | 96.9% | 102% | 106% | 94.1% | 104% | 97% | 92.2% | 104%
CC(C)NC[C@@H](O)c1ccc(O)c(O)c1 (racemic) [isoprenaline] | > 10 µM | > 10 µM | > 10 µM | > 10 µM | > 10 µM | 0 | 0 | 0 | 0.4 | 0 | 109% | 98.6% | 96.5% | 100% | 101% | 96.5% | 90% | 89% | 92.9% | 93.9% | 96.8% | 98.9% | 95.5% | 99.7% | 103% | 101% | 97.6% | 101% | 107% | 79.8% | 93.6% | 104% | 94.4% | 92.3% | 98.2%
CCCN(CC1CC1)c1nc(C)nc(Nc2c(Cl)cc(Cl)cc2Cl)c1Cl | > 10 µM | > 10 µM | > 10 µM | > 10 µM | > 10 µM | 0 | 0 | 0 | 0 | 0 | 95.4% | 94% | 106% | 103% | 97.2% | 93.5% | 97.8% | 90% | 96.2% | 89.8% | 100% | 97.3% | 103% | 101% | 99.3% | 98.3% | 96.7% | 94.9% | 96.8% | 106% | 85.1% | 95.1% | 93.8% | 96.8% | 95.5%
CCN1C(=O)CNc2ncc(-c3ccc(-c4nc[nH]n4)nc3C)nc21 [CC-115] | 0.894 µM | 0.411 µM | 1.11 µM | 1.04 µM | 0.4 µM | 9.3 | 12.7 | 10.5 | 8.7 | 12.8 | 108% | 102% | 105% | 57.2% | 25.1% | 94.7% | 96.4% | 89.2% | 39.8% | 20.5% | 100% | 102% | 99.6% | 59.4% | 6.6% | 108% | 103% | 103% | 64.4% | 24.8% | 106% | 92% | 91.9% | 37.3% | 21.6%

— the supplement of paper PMC13380429
